# Results reported in US20090227606A1, “Methods for Preventing or Treating Acute and Chronic Pain” (priority 2006, published 2009).
# Entries after “also recorded” stand apart in the source; their conditions may differ.
# Columns and labels:
# [1] = test system: GLAST mRNA; assay: Real Time RT-PCR of ipsilateral lumbar spinal cord, GLAST mRNA; type: in vivo, rat
# Protocol: Tissue was collected from 4-5 rats/group on postoperative days 4 or 12. In order to obtain both mRNA and protein from the same tissue sample, the L5 region of the spinal cord (ipsilateral to the injury), was isolated and placed in PBS supplemented with protease inhibitor cocktail (1:1000, Sigma Chemical Co., St. Louis, Mo.) and RNase inhibitor (0.75 U/μL Ambion, Austin, Tex.). Samples were sonicated in five one-second bursts at half-maximal power, centrifuged at 6500 rpm for 15 minutes at 4° C. Protein-containing supernatants were collected and stored at −80° C. until further processing by Western blot analysis. […]
# Real time RT-PCR reactions were carried out in a total reaction volume of 25 μL containing a final concentration of 1.5 U Platinum Taq DNA polymerase (Invitrogen Corporation, Carlsbad, Calif.); 20 mM Tris HCl (pH 8.4); 50 mM KCl; 3 mM MgCl2; 200 μM dGTP, dCTP, and dATP; 400 μM dUTP and 1 U of UDG (uracyl DNA glycosylase); 900 nM of forward and reverse primers; 300 nM Taqman probe; and 5 μL of a 10-fold dilution of cDNA (50 ng) from the RT step. The iCycler™ Multicolor Real-Time PCR detection system (Bio-Rad, Hercules, Calif.) was used to quantify PCR product. […] The relative fold change from control was then expressed by calculation of 2^−ΔΔC^T for each sample and the results are expressed as the group mean fold change±SEM.
# [2] = test system: MIP-2 (CXCL2); assay: ELISA of MIP-2 release from cultured astrocytes; type: cell-based, rat; details: seven days, LPS 1 μg/ml; propentofylline 1000 μM; db-cAMP 250 μM
# Protocol: After approximately 14 days (2 days after subplating into plates, DIV 14) astrocytes had formed a confluent monolayer. […] Phase contrast microscopy was then carried out in order to assess the morphology of cells after the various treatments. Length of astrocyte processes was quantified by measuring all processes in 2-3 phase contrast images/group by an independent observer, blinded to the treatment groups using Image J v1.34s (National Institutes of Health, Bethesda, Md.).
# Standard ELISA was performed for quantitative determination of MCP-1 and MIP-2 protein in cell culture supernatant. Assays were carried out according to the manufacturer's specifications (Biosource, Camarillo, Calif.) using the sandwich enzyme immunoassay procedure. Optical density at 450 nm was obtained using the MRX Revelations program (Dynex Technologies, Chantilly, Va.) and relative protein concentrations were determined by comparing samples to the standard curve generated.
structure (smiles),measurement,setting,value
CCCn1cnc2c1c(=O)n(CCCCC(C)=O)c(=O)n2C [propentofylline],GLAST mRNA in lumbar spinal cord,"[1]; day 4, compared to L5 spinal nerve transection alone",slight decrease in GLAST mRNA
same,GLAST mRNA levels (FIG. 9B legend),[1]; days 4 and 12 post-transection,unaffected
same,LPS-induced MIP-2 (CXCL2) release,[2],reversed by co-treatment with propentofylline; also recorded: significantly attenuated
